From ChEMBL document CHEMBL1145722, “Triterpene saponins from Cyclamen mirabile and their biological activities” (1997) come the findings set out here.

Structures are written as SMILES. Converted amounts (≈) assume the structure as drawn.

What all share (format): functional
The subject of test [1] is Candida albicans. Put plainly: Antifungal activity against Candida albicans by microtiter-tube dilution method.
Test [2] relates to Kluyveromyces marxianus. In words: Antifungal activity against Candida pseudotropicalis by microtiter-tube dilution method.
Test [3] relates to Candida tropicalis. In words: Antifungal activity against Candida tropicalis by microtiter-tube dilution method.
For test [4], the system named is Candida parapsilosis. Put plainly: Antifungal activity against Candida parapsilosis by microtiter-tube dilution method. The following applies: Lodderomyces parapsilosis.
For test [5], the system named is Staphylococcus aureus. In words: Antibacterial activity against Staphylococcus aureus ATCC 29213 by microtiter-tube dilution method.
The subject of test [6] is Enterococcus faecalis. In words: Antibacterial activity against Enterococcus faecalis ATCC 29212 by microtiter-tube dilution method.
For test [7], the system named is Pichia kudriavzevii. In words: Antifungal activity against Candida krusei by microtiter-tube dilution method.
For test [8], the system named is Cryptococcus neoformans. In words: Antifungal activity against Cryptococcus neoformans by microtiter-tube dilution method.
Test [9] relates to Pseudomonas aeruginosa. Put plainly: Antibacterial activity against Pseudomonas aeruginosa ATCC 27853 by microtiter-tube dilution method.
Test [10] concerns Escherichia coli. In words: Antibacterial activity against Escherichia coli ATCC 25922 by microtiter-tube dilution method.
Test [11] is described as follows: Uterocontractile activity in rat uterus assessed as contraction at 8.6 uM relative to acetylcholine.
Test [12] has as its system Candida albicans. In words: Antifungal activity against Candida stellatoidea by microtiter-tube dilution method.
A short description of test [13]: Uterocontractile activity in rat uterus assessed as contraction at 7.5 uM relative to acetylcholine.
The nature of test [14]: Uterocontractile activity in rat uterus assessed as contraction at 6.4 uM relative to acetylcholine.
Test [15] in a line: Uterocontractile activity in rat uterus assessed as contraction at 19 uM relative to acetylcholine.
Test [16] can be described thus: Uterocontractile activity in rat uterus assessed as contraction at 7.4 uM relative to acetylcholine.
Test [17] in a line: Uterocontractile activity in rat uterus assessed as contraction at 20 uM relative to acetylcholine.
Test [18] in a line: Uterocontractile activity in rat uterus assessed as contraction at 6.5 uM relative to acetylcholine.

In the case of `CC1(C)[C@@H](O[C@@H]2OC[C@H](O[C@@H]3O[C@H](CO)[C@@H](O)[C@H](O)[C@H]3O)[C@H](O)[C@H]2O[C@@H]2O[C@H](CO)[C@@H](O)[C@H](O)[C@H]2O)CC[C@]2(C)[C@H]3CC[C@]45OC[C@@]6(CC[C@](C)(C=O)C[C@H]64)[C@H](O)C[C@@]5(C)[C@]3(C)CC[C@@H]12` [CYCLAMINORIN], the MIC – broadly, the smallest concentration in the dilution series that meets the test's criterion for growth inhibition – in [1] was 160 µg/mL (≈ 172 µM); in [2] it was 160 µg/mL (≈ 172 µM); in test [3], 160 µg/mL (≈ 172 µM); in test [4], 80 µg/mL (≈ 86.1 µM); in test [5], more than 400 µg/mL; in test [6], more than 400 µg/mL. Further, the MIC is more than 320 µg/mL in test [7]; 80 µg/mL (≈ 86.1 µM) in test [8]; more than 400 µg/mL in test [9]; more than 400 µg/mL in test [10]; 160 µg/mL (≈ 172 µM) in [12]. Further, the Activity in test [11] came to 46.2%.
As to `CC1(C)[C@@H](O[C@@H]2OC[C@H](O[C@@H]3O[C@H](CO)[C@@H](O)[C@H](O)[C@H]3O[C@@H]3OC[C@H](O)[C@H](O)[C@H]3O)[C@H](O)[C@H]2O[C@@H]2O[C@H](CO)[C@@H](O)[C@H](O)[C@H]2O)CC[C@]2(C)[C@H]3CC[C@]45OC[C@@]6(CC[C@](C)(C=O)C[C@H]64)[C@H](O)C[C@@]5(C)[C@]3(C)CC[C@@H]12` [DEGLUCOCYCLAMIN], the MIC in test [1] is 160 µg/mL (≈ 151 µM); in [2], 160 µg/mL (≈ 151 µM); in [3], 160 µg/mL (≈ 151 µM); in [4] it was 80 µg/mL (≈ 75.4 µM); in [5], more than 400 µg/mL; in [6] it was more than 400 µg/mL. The MIC is more than 320 µg/mL in test [7]; 80 µg/mL (≈ 75.4 µM) in test [8]; more than 400 µg/mL in test [9]; more than 400 µg/mL in test [10]; 160 µg/mL (≈ 151 µM) in test [12]. In test [13], the Activity was found to be 36.7%.
Consider `CC1(C)[C@@H](O[C@@H]2OC[C@H](O[C@@H]3O[C@H](CO[C@@H]4O[C@H](CO)[C@@H](O)[C@H](O)[C@H]4O)[C@@H](O)[C@H](O)[C@H]3O[C@@H]3OC[C@H](O)[C@H](O)[C@H]3O)[C@H](O)[C@H]2O[C@@H]2O[C@H](CO)[C@@H](O)[C@H](O)[C@H]2O)CC[C@]2(C)[C@H]3CC=C4[C@@H]5C[C@@](C)(C(=O)O)CC[C@]5(CO)[C@H](O)C[C@@]4(C)[C@]3(C)CC[C@@H]12` [MIRABILIN], for which the Activity stood at 0.7% in test [14] and 1.1% in [15]. The MIC in test [5], in [6], in [9] and in [10] was more than 400 µg/mL each time.
Turning to `C[C@]1(C=O)CC[C@]23CO[C@@]4(CC[C@@H]5[C@@]6(C)CC[C@H](O[C@@H]7OC[C@H](O[C@@H]8O[C@H](CO)[C@@H](O)[C@H](O)[C@H]8O[C@@H]8OC[C@H](O)[C@H](O)[C@H]8O)[C@H](O)[C@H]7O[C@@H]7O[C@H](CO)[C@@H](O)[C@H](O)[C@H]7O)[C@@](C)(CO)[C@@H]6CC[C@@]5(C)[C@]4(C)C[C@H]2O)[C@@H]3C1` [CYCLACOUMIN], the MIC in [1] is 160 µg/mL (≈ 149 µM); in test [2], 160 µg/mL (≈ 149 µM); in [3], 160 µg/mL (≈ 149 µM); in [4], 80 µg/mL (≈ 74.3 µM); in test [5] it was more than 400 µg/mL; in test [6], more than 400 µg/mL. Further, the MIC in test [7] is more than 320 µg/mL; in test [8] it was 80 µg/mL (≈ 74.3 µM); in test [9] it was more than 400 µg/mL; in test [10], more than 400 µg/mL; in test [12], 160 µg/mL (≈ 149 µM). Further, the Activity in [16] worked out at 58.2%.
With `CC1(C)[C@@H](O[C@@H]2OC[C@H](O[C@@H]3O[C@H](CO[C@@H]4O[C@H](CO)[C@@H](O)[C@H](O)[C@H]4O)[C@@H](O)[C@H](O)[C@H]3O[C@@H]3OC[C@H](O)[C@H](O)[C@H]3O)[C@H](O)[C@H]2O[C@@H]2O[C@H](CO)[C@@H](O)[C@H](O)[C@H]2O)CC[C@]2(C)[C@H]3CC=C4[C@@H]5C[C@]6(C)CC[C@]5(COC6=O)[C@H](O)C[C@@]4(C)[C@]3(C)CC[C@@H]12` [MIRABILIN LACTONE], the MIC in test [5], in test [6], in test [9] and in test [10] was more than 400 µg/mL throughout. Also, the Activity in test [17] is 5.7%; in test [18], 0.6%.
Consider `CC1(C)[C@@H](O[C@@H]2OC[C@H](O[C@@H]3O[C@H](CO)[C@@H](O)[C@H](O[C@@H]4O[C@H](CO)[C@@H](O)[C@H](O)[C@H]4O)[C@H]3O[C@@H]3OC[C@@H](O)[C@H](O)[C@H]3O)[C@H](O)[C@H]2O[C@@H]2O[C@H](CO)[C@@H](O)[C@H](O)[C@H]2O)CC[C@]2(C)[C@H]3CC[C@]45OC[C@@]6(CC[C@](C)(C=O)C[C@H]64)[C@H](O)C[C@@]5(C)[C@]3(C)CC[C@@H]12` [CYCLAMIN], for which the MIC in test [5], in test [6], in test [9] and in test [10] was more than 400 µg/mL each time. The Activity in test [18] was found to be 48.4%.
With `CC1(C)[C@@H](O[C@@H]2OC[C@H](O[C@@H]3O[C@H](CO[C@@H]4O[C@H](CO)[C@@H](O)[C@H](O)[C@H]4O)[C@@H](O)[C@H](O)[C@H]3O[C@@H]3OC[C@H](O)[C@H](O)[C@H]3O)[C@H](O)[C@H]2O[C@@H]2O[C@H](CO)[C@@H](O)[C@H](O)[C@H]2O)CC[C@]2(C)[C@H]3CC[C@]45OC[C@@]6(CC[C@](C)(C=O)C[C@H]64)[C@H](O)C[C@@]5(C)[C@]3(C)CC[C@@H]12` [ISOCYCLAMIN], the MIC in [5], in test [6], in test [9] and in [10] was more than 400 µg/mL each time. In addition, the Activity in [17] came out at 28.3%; in [18], 0.1%.
